From ChEMBL document CHEMBL2346648, “A series of thiazole derivatives bearing thiazolidin-4-one as non-competitive ADAMTS-5 (aggrecanase-2) inhibitors” (Bioorg Med Chem Lett, 2013)

Key:
[1] = Apparent permeability from apical to basolateral side of MDCK cells by transwell assay; format: ADME, cell-based, Canis lupus familiaris; conditions: dog
[2] = Intrinsic clearance in […]; format: ADME
[3] = biological target: Disintegrin and metalloproteinase domain-containing protein 17 (Homo sapiens, UniProt P78536); assay: Inhibition of TACE (unknown origin)
[4] = biological target: Matrix metalloproteinase-14 (Homo sapiens, UniProt P50281); assay: Inhibition of MMP14 (unknown origin) by FRET method
Stromelysin-1 = Stromelysin-1 (Homo sapiens, UniProt P08254); assay: Inhibition of MMP3 (unknown origin) by FRET method
[5] = biological target: T1, A disintegrin and metalloproteinase with thrombospondin motifs 13 (Homo sapiens, UniProt Q76LX8); assay: Inhibition of ADAMTS-13 (unknown origin)
T1 sequence (Q76LX8 whole entry): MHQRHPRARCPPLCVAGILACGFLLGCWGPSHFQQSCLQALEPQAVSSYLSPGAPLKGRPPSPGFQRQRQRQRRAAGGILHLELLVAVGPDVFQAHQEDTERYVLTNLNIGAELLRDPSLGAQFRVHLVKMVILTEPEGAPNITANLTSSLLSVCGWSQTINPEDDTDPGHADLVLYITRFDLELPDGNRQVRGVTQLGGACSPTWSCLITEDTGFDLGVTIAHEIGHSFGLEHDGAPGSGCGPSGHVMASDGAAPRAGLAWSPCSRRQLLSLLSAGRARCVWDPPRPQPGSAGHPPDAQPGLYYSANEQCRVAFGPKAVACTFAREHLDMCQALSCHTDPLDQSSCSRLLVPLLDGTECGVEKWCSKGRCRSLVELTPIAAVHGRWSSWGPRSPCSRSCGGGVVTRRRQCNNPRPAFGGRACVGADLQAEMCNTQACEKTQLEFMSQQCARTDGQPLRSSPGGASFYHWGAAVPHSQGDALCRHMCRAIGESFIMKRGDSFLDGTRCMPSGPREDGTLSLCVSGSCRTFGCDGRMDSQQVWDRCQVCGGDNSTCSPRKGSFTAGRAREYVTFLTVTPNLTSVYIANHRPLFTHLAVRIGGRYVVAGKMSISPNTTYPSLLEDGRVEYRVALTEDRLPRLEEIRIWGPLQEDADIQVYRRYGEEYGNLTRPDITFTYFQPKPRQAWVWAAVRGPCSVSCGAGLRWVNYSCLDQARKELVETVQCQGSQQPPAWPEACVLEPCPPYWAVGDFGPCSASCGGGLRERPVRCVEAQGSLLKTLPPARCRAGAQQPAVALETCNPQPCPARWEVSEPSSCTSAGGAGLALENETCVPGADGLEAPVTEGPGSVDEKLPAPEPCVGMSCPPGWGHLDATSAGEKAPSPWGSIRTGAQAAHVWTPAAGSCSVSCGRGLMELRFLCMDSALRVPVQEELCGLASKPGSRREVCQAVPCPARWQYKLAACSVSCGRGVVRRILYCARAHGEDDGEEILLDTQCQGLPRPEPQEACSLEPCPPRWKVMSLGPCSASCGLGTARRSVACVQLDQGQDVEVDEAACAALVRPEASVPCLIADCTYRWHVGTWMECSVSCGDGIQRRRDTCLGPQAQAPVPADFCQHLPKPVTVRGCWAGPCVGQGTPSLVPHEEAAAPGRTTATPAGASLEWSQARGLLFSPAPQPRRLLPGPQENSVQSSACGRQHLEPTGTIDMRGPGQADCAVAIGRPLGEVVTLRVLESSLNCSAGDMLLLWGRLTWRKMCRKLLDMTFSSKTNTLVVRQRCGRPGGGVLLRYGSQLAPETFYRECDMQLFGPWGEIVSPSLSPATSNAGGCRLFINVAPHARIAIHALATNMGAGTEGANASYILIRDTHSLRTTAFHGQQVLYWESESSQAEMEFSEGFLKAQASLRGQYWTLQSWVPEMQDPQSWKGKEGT

Chain of Disintegrin and metalloproteinase domain-containing protein 17 (P78536 whole entry, the tested form may be a part): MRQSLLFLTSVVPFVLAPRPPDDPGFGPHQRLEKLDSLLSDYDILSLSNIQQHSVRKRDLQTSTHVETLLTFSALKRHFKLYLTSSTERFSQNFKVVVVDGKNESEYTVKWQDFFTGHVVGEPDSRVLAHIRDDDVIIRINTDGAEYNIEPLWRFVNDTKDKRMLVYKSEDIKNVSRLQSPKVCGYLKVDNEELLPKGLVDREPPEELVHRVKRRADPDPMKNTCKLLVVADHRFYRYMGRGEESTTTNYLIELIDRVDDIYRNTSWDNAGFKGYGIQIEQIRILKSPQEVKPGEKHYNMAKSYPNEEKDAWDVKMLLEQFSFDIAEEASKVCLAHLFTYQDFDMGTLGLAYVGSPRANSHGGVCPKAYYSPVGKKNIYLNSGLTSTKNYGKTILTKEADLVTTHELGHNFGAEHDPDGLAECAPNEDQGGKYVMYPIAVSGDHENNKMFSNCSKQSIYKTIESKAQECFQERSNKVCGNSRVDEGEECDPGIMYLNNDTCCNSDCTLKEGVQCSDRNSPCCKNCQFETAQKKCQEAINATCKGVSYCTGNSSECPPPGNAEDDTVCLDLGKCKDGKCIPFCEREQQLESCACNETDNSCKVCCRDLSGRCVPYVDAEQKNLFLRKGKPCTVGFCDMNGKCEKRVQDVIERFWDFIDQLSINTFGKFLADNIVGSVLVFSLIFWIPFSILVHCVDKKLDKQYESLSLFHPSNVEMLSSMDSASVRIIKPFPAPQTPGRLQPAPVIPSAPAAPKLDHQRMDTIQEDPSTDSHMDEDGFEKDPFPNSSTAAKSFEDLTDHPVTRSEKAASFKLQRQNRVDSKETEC
Chain of Stromelysin-1 (P08254 whole entry): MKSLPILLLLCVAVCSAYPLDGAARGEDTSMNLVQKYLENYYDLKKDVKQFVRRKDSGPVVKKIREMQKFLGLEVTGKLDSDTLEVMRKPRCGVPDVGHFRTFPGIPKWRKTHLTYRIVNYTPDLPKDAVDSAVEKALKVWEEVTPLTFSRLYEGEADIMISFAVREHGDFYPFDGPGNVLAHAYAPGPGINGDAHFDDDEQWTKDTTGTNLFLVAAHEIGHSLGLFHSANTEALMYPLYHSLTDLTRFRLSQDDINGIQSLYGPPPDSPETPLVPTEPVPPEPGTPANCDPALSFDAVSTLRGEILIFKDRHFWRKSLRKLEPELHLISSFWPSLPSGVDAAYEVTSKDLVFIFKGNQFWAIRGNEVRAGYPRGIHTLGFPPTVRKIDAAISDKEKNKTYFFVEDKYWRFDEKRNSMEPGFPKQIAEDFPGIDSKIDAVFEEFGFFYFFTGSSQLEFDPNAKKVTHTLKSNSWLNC

O=C(O)CCc1sc(/C=C2\NC(=O)CS2)nc1-c1ccccn1
Papp A→B [1]: 5.55 ×10⁻⁶ cm/s
CLint scaled [2]: 2.7 mL/min/kg
IC50 [3]: > 30 µM
IC50 [4]: 24 µM
IC50 (Stromelysin-1): > 30 µM
IC50 [5]: 20 µM
